# Assay results as given in article PMC9570042, “Impairment of Nucleolin Activity and Phosphorylation by a Trachylobane Diterpene from Psiadia punctulata in Cancer Cells” (International Journal of Molecular Sciences, 2022).
# Assays:
# PBMC = assay: Toxicity against PBMC; assay type: cell-based
# [1] = target: T1, hNcl fragment consisting of RBD1 and 2 (RBD1,2) (Homo sapiens, UniProt P19338); assay: Surface plasmon resonance with hNcl fragment RBD1,2; assay type: binding; settings: SPR, immobilized RBD1,2, 25 °C
# T1 construct: using an hNcl fragment consisting of RBD1 and 2 (RBD1,2)
# Protocol: Moreover, to obtain information concerning the protein region involved in the interaction with 12, a new SPR analysis was carried out using an hNcl fragment consisting of RBD1 and 2 (RBD1,2).
# A Biacore 3000 optical biosensor was used to conduct Surface Plasmon Resonance (SPR) experiments. Proteins (hNcl and RBD 1,2) were dissolved at 100 µg/mL in 50 mM sodium acetate at a pH 4.5 and injected at a flow rate of 5 µL/min on a research-grade CM5 sensor chip (GE Healthcare, Chicago, IL, USA) to achieve immobilization. A standard amine-coupling protocol was used. Compound 12 was dissolved in 100% DMSO to obtain 4 mM solutions and diluted in […] (v/v) in PBS (10 mM NaH2PO4, 137 mM NaCl, 2.7 mM KCl pH 7.4). The final concentration of DMSO was 0.1% (v/v). This stock solution was used as a starting point to produce a four-concentration points series (0.025, 0.2, 1, and 4 µM). Measurements were performed at 25 °C, using a flow rate of 5 µL/min flow rate and adopting an association time of 60 s; dissociation of the complex was monitored for 300 s. The resulting sensorgrams were elaborated through the BIAevaluation software (GE Healthcare). Thermodynamic constants were calculated by adequately fitting the experimental curves with a single-site bimolecular interaction model.
# hNcl [2] = assay: Western blot of hNcl and phosphorylated hNcl in HeLa cells; assay type: cell-based, human; settings: cancer cells
# Description: Finally, we determined whether the treatment with 12 could affect hNcl expression, phosphorylation, and cellular localization.
# HeLa cells [3] = assay: Protein neo-synthesis in HeLa cells; assay type: cell-based, human; settings: 20 μM
# HeLa cells [4] = assay: MTT-based proliferation assay, HeLa cells; assay type: cell-based; settings: Homo sapiens, 48 h, read-out: IC50, inhibition of proliferation (MTT)
# Protocol: HeLa cells were seeded at 1 × 10^4 cells/well in 96-well plates. The day after the cells were incubated for 48 h with different concentrations of compounds (10–100) μM. The number of viable cells was quantified by MTT ([3-(4,5-dimethylthiazol-2-yl)-2,5-diphenyl tetrazolium bromide]) assay. Absorption at 550 nm for each well was assessed using a microplate reader (LabSystems, Vienna, VA, USA). Half maximal inhibitory concentration (IC50) values were calculated from cell viability dose–response curves and defined as the concentration resulting in 50% inhibition of cell survival as compared to controls.
# hNcl [5] = target: T2, hNcl (Homo sapiens, UniProt P19338); assay: CETSA apparent melting temperature of hNcl in HeLa cells; assay type: cell-based; design: endogenous in cells; host or cells: HeLa (cervical carcinoma); settings: 20 μM, 2 h
# Protocol: (§1) The 12/hNcl interaction was also investigated using CETSA and its effect on the hNcl denaturation temperature (Tm) in the cells was analyzed. HeLa cells incubated with 12, oridonin or the vehicle were heated to different temperatures in the 38–61 °C range, and the amount of soluble hNcl remaining at each T value was measured. […] Further CETSAs were performed using various concentrations of the compound (1–20 μM) and the amount of hNcl resisting thermal denaturation at 55.5 °C was then reported in a graph as a function of the concentration of 12 used (Figure S3 and Figure 1E). This experiment allowed the calculation of an EC50 (the compound concentration producing half of the maximum effect on hNcl stabilization) of 5 μM.
# HeLa cells were seeded at 1.5 × 10^6 in 100 mm culture dishes. After 24 h, the cells were treated with compound 12 or oridonin (final concentration 20 μM) and incubated for 2 h in a CO2 incubator at 37 °C. The cells were then collected and centrifuged, and the cell pellets were washed with PBS and gently suspended in 1 mL PBS supplemented with protease inhibitors. […] The cells were then lysed and analyzed, as reported above.
# HeLa cells [6] = assay: Apoptosis analysis, Annexin V-FITC/PI and Parp/pro-Caspase 3 cleavage, HeLa cells; assay type: cell-based, human
# Protocol: HeLa cells were seeded at 5.0 × 10^5 in 100 mm culture dishes. The day after, the cells were treated with DMSO and 12 at 10 μM and 20 μM for 48 h. The cell cycle was evaluated by propidium iodide (PI) staining of permeabilized cells (BD FACSCalibur flow cytometer, Becton Dickinson, San Jose, CA, USA). Data from 5000 events per sample were collected. The percentages of the elements in the hypodiploid region and in G0/G1, S, and G2/M phases of the cell cycle were calculated using the CellQuest and MODFIT software, respectively. The apoptosis analysis was carried out according to the protocol described in Annexin V, FITC Apoptosis Detection Kit (Dojindo EU GmbH, Munich, Germany). The samples were detected by Flow Cytometry (BD FACSCalibur flow cytometer, Becton Dickinson, San Jose, CA, USA) and analyzed by BD FACSuite software.
# hNcl [7] = target: T2, hNcl; assay: CETSA-based EC50 determination in HeLa cells; assay type: cell-based; design: endogenous in cells; host or cells: HeLa (cervical carcinoma); settings: 2 h, heated at 55.5 °C, read-out: EC50 (concentration producing half of the maximum effect on hNcl stabilization)
# Protocol: as §1
# HeLa cells were seeded at 1.0 × 10^5 in 12-well plates. The treatment was performed for 2 h using compound 12 at the following concentrations: 0.1, 0.5, 1, 2, 5, 10, 15, and 20 μM. Subsequently, the drug-containing media were removed through centrifugation; the cells were washed with PBS, aliquoted in 0.2 mL tubes, and then heated at 55.5 °C (Tm of hNcl) for 3 min. They were then lysed and analyzed, as reported above. The hNcl/Gapdh density ratio measured at the […] concentration producing the maximum stabilizing effect was set as 100%.
# Jurkat cells = assay: MTT-based proliferation assay, Jurkat cells; assay type: cell-based; settings: Homo sapiens, read-out: IC50, inhibition of proliferation (MTT)
# T2 sequence (P19338 whole entry): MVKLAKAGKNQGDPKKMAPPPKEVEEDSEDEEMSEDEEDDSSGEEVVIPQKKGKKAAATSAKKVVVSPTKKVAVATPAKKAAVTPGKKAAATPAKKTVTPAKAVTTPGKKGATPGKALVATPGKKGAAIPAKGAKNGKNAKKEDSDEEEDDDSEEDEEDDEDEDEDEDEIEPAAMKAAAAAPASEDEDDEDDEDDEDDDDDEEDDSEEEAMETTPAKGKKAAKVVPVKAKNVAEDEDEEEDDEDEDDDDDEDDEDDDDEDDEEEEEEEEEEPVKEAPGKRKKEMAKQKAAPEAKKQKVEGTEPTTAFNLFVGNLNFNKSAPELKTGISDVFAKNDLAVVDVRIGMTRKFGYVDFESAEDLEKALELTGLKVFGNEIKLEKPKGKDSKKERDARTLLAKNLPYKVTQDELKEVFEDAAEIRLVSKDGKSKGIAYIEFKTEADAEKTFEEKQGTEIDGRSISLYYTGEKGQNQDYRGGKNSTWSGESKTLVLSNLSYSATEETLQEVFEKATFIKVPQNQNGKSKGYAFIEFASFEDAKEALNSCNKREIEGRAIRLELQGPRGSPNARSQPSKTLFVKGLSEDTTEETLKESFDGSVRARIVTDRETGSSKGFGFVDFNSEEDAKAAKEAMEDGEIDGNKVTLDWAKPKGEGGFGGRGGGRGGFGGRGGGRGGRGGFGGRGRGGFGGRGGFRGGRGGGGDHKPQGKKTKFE
# T1 sequence (P19338 300-466 limits assumed): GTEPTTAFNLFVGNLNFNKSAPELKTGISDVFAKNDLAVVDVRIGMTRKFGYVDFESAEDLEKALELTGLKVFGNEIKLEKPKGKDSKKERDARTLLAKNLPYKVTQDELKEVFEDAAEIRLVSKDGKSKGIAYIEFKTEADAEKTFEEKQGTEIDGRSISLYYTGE
compound,measurement,setting,value
"CC1(CO)CCCC2(C)C1C(O)CC13CC4C(CC12)C4(C(=O)O)C3 (stereo not drawn) [compound 12, 6,19-dihydroxy-ent-trachiloban-17-oic acid]",toxicity: concentration up to which no toxicity was observed,PBMC,> 100 µM
same,KD,[1],0.074 ± 0.005 µM
same,koff,[1],0.0053 ± 0.009 s⁻¹
same,hNcl levels,"hNcl [2]; 20 μM, 4, 6, or 16 h",did not modify
same,phosphorylation of hNcl,"hNcl [2]; 20 μM, 4 h treatment",inhibited
same,protein neo-synthesis vs untreated cells,HeLa cells [3],no significant differences
same,IC50,HeLa cells [4],25 µM
same,Tm of hNcl in cells incubated with compound,hNcl [5],55.5 °C
same,stabilization of hNcl (hNcl vs. T graphs) compared with oridonin,hNcl [5]; 38–61 °C,stabilized hNcl more than oridonin did
same,increase in early apoptosis,"HeLa cells [6]; 48 h treatment, Annexin V-FITC/PI",approximately 20%
same,Parp and pro-Caspase 3 cleavage,HeLa cells [6]; Western blot,observed
same,EC50,hNcl [7],5 µM
same,IC50,Jurkat cells,50 µM
